Article PMC10388311, “Innovative Strategy toward Mutant CFTR Rescue in Cystic Fibrosis: Design and Synthesis of Thiadiazole Inhibitors of the E3 Ligase RNF5” (Journal of Medicinal Chemistry, 2023)
Entries after “also recorded” stand apart in the source; their conditions may differ.

Assays:
[1] = Solubility and aggregation in PBS buffer by NMR (SPAM filter, 1H 1D and WaterLOGSY); type: physicochemical; conditions: PBS pH 7.5, 1 μM ZnCl2, 1 mM DTT, 10% D2O, 1% DMSO-d6; for solubility: PBS buffer, aqueous buffer, kinetic from dmso stock, theoretical concentration 20 μM, read-out: solubility in PBS buffer by NMR, 20 μM; for aggregation in PBS buffer by NMR: WaterLOGSY; for solubility at 50 µM: theoretical concentration 50 μM; for solubility at 100 µM: theoretical concentration 100 μM
Text: Under these circumstances, it was decided to explore the solubility of all the synthetized compounds, regardless of their biological activities, to find a suitable candidate for the validation of our working hypothesis, i.e., that the compounds exert their activities by directly binding to RNF5. For that, we first calculated the predicted octanol/water partition coefficient (log Po/w) and the predicted aqueous solubility (log S) of all the analogues by QikProp (Schrödinger Release 2022-1: QikProp, Schrödinger, LLC, New York, NY, 2021, Table S1). […] To shrink down the number of compounds for solubility experiments, just the ones that had −2.0 < log Po/w < 6 and −6.5 < log S <0.5 values were selected. Among them, the PBS solubility was determined for five representative analogues: (i) 12 and 29 bearing different substituents on the benzyl group A; (ii) 34 and 40 showing the replacement of rings B and C with pyridine-4-yl moieties; (iii) 42 in which the N-phenylbenzamidine portion was replaced with a pyridine-2-yl moiety (Table 1).
All the NMR experiments were recorded at 298 K using a 5 mm CryoProbe QCI ^1H/^19F–^13C/^15N–D quadruple resonance, a shielded z-gradient coil, and an automatic sample changer SampleJet NMR system with temperature control. The solubility of the compounds were evaluated by ^1H 1D experiments and aggregation by WaterLOGSY, testing the compounds in buffer PBS pH 7,5, 1 μM ZnCl2, 1 mM DTT, 10% D2O (for the lock signal), and 1% DMSO-d6 at the theoretical concentrations of 20, 50, and 100 μM in the presence of 200 μM 4-trifluoromethyl benzoic acid (internal reference). For all samples, a 1D ^1H NMR experiment was recorded, the water suppression was obtained using the standard NOESY (nuclear Overhauser effect spectroscopy) preset Bruker pulse sequence, with 64k data points, a spectral width (sw) of 30 ppm, 64 scans, acquisition time (aq) of 1.835 s, a relaxation delay (d1) of 4 s, and a mixing time of 10 ms. […] The data were multiplied by an exponential window function with 1 Hz line broadening prior to Fourier transformation. For NMR binding experiments, the compounds were tested at 50 μM in buffer PBS pH 7.5, 1 μM ZnCl2, 1 mM DTT, 10% D2O (for the lock signal), and 1% DMSO-d6 in the absence and in the presence of 3 μM RNF5. WaterLOGSY experiments were recorded with the same parameters used in solubility assays, but with a higher number of scans (512); STD experiments were recorded with 128 scans, with two on (0.7 and 1 ppm) and one off (−50 ppm) resonance spectra, a Gaussian-shaped train pulse of 50 ms each was employed, with a total saturation time of the protein envelope of 5, 3, 2, 1.5, 1, or 0.5 s. A T1ρ filter of 2 ms was employed in STD experiments to eliminate the background signals from the protein. The STD spectrum was obtained by subtraction of the on-resonance spectrum from the off-resonance spectrum. Subtraction was performed by phase cycling to minimize artifacts arising from magnet and temperature instabilities.

[2] = biological target: T1, F508del-CFTR in CFBE41o– cells (Homo sapiens, UniProt Q99942); assay: HS-YFP microfluorimetric assay of F508del-CFTR rescue (corrector activity); type: cell-based; conditions: CFBE41o– cells co-expressing F508del-CFTR and HS-YFP, 24 h treatment, Figure 5
Protocol: As a primary screen, the new thiadiazole derivatives 1–46 (Table 1) were tested for their ability to rescue the F508del-CFTR trafficking defect in CFBE41o^– cells, stably co-expressing F508del-CFTR and the HS-YFP (Figure 5). This cell line has been extensively used by our group, in combination with the microfluorimetric assay based on the HS-YFP, to identify and characterize many CFTR correctors.[39],[47] This assay relies on the hypothesis that RNF5 inhibition results in increased mutant CFTR processing and activity. Therefore, it can easily identify putative RNF5 inhibitors, but not other types of RNF5-binding compounds that could have no effect or have a negative effect on CFTR function, such as RNF5 activators (see analog-1). Thus, we opted for this assay as our primary aim was the identification of RNF5 inhibitors as a possible therapeutic strategy in CF. Twenty-four hours after seeding on 96-well plates, CFBE41o^– cells stably expressing F508del-CFTR and the HS-YFP were treated with test compounds at the desired concentration, one compound per well. Cells treated with vehicle alone (DMSO) and with corrector VX-809 (1 μM), respectively, served as negative and positive controls. At the time of the assay, cells were washed with PBS containing (in […]) 137 NaCl, 2.7 KCl, 8.1 Na2HPO4, 1.5 KH2PO4, 1 CaCl2, and 0.5 MgCl2. Cells were then incubated for 25 min with […] of PBS plus forskolin (20 μM) and VX-770 (1 μM) to maximally stimulate F508del-CFTR. Cells were then transferred to a microplate reader (FluoStar Galaxy; BMG Labtech, Offenburg, Germany) for CFTR activity determination. The plate reader was equipped with high-quality excitation (HQ500/20X: 500 ± 10 nm) and emission (HQ535/30M: 535 ± 15 nm) filters for YFP (Chroma Technology). Each assay comprised a continuous 14 s fluorescence reading and 2 s before and 12 s after injection of […] of an iodide-containing solution (PBS with Cl^– replaced by I^–; final I^– concentration […]). Data were normalized to the initial background-subtracted fluorescence. To determine the I^– influx rate, the final 11 s of the data for each well was fitted with an exponential function to extrapolate initial slope (dF/dt). Reproducibility of results was confirmed by performing three independent experiments. CFBE41o^– cells co-expressing F508del-CFTR and the HS-YFP were reverse-transfected with 50 nM (final concentration) siRNAs (Stealth, Life Technologies) in the presence of lipofectamine 2000 as a transfection agent. The following day, the medium was changed, and the cells were incubated at 37 °C for additional 24 h treated with test compounds at the desired concentration, prior to processing the cells for the YFP-based functional assay.

CFBE41o– cells = assay: Apoptosis assay (Hoechst 33342 / propidium iodide, high-content imaging); type: cell-based, human; conditions: 24 h, 100 μM
Protocol: We performed a preliminary evaluation of the effect of chronic treatment with selected analogues on the proliferation and apoptosis of CFBE41o^– cells (Figure 7). Indeed, RNF5 can modulate cell motility and proliferation by regulating paxillin ubiquitylation and thus its degradation.[53] For the proliferation assay, CFBE41o^– cells stably co-expressing F508del-CFTR and the HS-YFP were treated with test compounds (5 μM), VX-809 (1 μM), or vehicle alone (DMSO) for 48 h. Cell proliferation was then monitored by measuring the area covered by the cells based on the YFP signal. For the apoptosis assay, 24 h after plating, CFBE41o^– cells stably expressing F508del-CFTR were treated with test compounds (5, 20, and 100 μM), VX-809 (1 μM), MG132 (50 μM), or vehicle alone (DMSO) for 24 h. Cell nuclei were then counterstained with Hoechst 33342 and propidium iodide to visualize the total and apoptotic cell count, respectively, and imaged by using an Opera Phenix high-content screening system.
CFBE41o^– cells stably expressing F508del-CFTR and the HS-YFP were plated at a low density (5000 cell/well) on 96-well plates suitable for high-content imaging. […] Cell proliferation was monitored (by exploiting the YFP signal to determine the area covered by cells) for 48 h using the Opera Phenix (PerkinElmer) high-content screening system. […] Data are expressed as means ± SEM, n = 6. […]

[3] = test system: ATG4B-mediated basal autophagy in F508del-CFTR-expressing CFBE41o– cells; assay: Labeling of autophagic vacuoles with monodansylcadaverine (MDC); type: cell-based, human; conditions: test compounds 5 μM 24 h; torin-1 20 nM and SAR-405 2 μM in the last 3 h
Text: To further support our hypothesis that CFTR rescue following treatment with test compounds was indeed due to RNF5 inhibition, we considered additional biological processes known to be regulated by RNF5 ligase activity. To this aim, we focused our attention on ATG4B, a known regulator of basal autophagy, whose degradation is mediated by RNF5 activity.[54]In vivo ubiquitination experiments previously confirmed that inh-2 inhibits ATG4B degradation, thus increasing the basal level of autophagy.[40] […] We thus evaluated the effect of inh-2 analogues on induction of the autophagy pathway. To this aim, we monitored the formation of autophagic vacuoles in F508del-CFTR-expressing CFBE41o^– cells (Figure 8) by using the autolysosome marker monodansylcadaverine (MDC). MDC accumulates inside autophagosomes. After fusion of autophagosomes with lysosomes, MDC fluorescence increases due to the acidic environment.[55] Therefore, F508del-CFTR-expressing CFBE41o^– cells were treated for 24 h with test compounds (5 μM), VX-809 (1 μM), or DMSO alone (vehicle). In the last 3 h of incubation, we added torin-1 (20 nM), a known autophagy inducer, and SAR-405 (2 μM), a potent inhibitor of the autophagic pathway. The cells were then loaded with MDC and evaluated by high-content confocal imaging to detect signal spots (corresponding to autophagic vacuoles) in each cell.
CFBE41o^– cells stably expressing F508del-CFTR and the HS-YFP were plated (50,000 cells/well) on good-quality clear-bottom 96-well black microplates suitable for high-content imaging. After 24 h, cells were treated with test compounds or DMSO (as the negative control). […] After 24 h, cells were incubated with 50 μM MDC (Sigma-Aldrich) in PBS at 37 °C for 10 min.[62] After incubation, cells were washed three times with PBS and immediately analyzed. High-content imaging and data analysis were performed using the Opera Phenix (PerkinElmer) high-content screening system. Wells were imaged in confocal mode using a 40× water-immersion objective. The MDC signal was laser-excited at 405 nm, and the emission wavelengths were collected between 435 and 550 nm. Data analysis of MDC spot number was performed using the Harmony software (ver 4.5) of the Opera Phenix high-content system. Data are expressed as means ± SEM, n = 3 independent experiments. Statistical significance was tested by parametric ANOVA followed by the Dunnet multiple comparisons test (all groups against the control group).

[4] = biological target: T1, F508del-CFTR in CFBE41o– cells; parameters: method as in PMID 29754957; conditions: cited from earlier work

T1 sequence (Q99942 2-180): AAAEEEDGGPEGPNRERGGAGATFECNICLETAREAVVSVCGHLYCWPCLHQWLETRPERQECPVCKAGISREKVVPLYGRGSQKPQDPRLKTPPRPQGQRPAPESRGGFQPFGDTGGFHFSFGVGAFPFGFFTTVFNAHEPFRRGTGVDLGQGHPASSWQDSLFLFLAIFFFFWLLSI
T1 sequence (P13569 with tags, fused parts or gaps DEL508-508 partner): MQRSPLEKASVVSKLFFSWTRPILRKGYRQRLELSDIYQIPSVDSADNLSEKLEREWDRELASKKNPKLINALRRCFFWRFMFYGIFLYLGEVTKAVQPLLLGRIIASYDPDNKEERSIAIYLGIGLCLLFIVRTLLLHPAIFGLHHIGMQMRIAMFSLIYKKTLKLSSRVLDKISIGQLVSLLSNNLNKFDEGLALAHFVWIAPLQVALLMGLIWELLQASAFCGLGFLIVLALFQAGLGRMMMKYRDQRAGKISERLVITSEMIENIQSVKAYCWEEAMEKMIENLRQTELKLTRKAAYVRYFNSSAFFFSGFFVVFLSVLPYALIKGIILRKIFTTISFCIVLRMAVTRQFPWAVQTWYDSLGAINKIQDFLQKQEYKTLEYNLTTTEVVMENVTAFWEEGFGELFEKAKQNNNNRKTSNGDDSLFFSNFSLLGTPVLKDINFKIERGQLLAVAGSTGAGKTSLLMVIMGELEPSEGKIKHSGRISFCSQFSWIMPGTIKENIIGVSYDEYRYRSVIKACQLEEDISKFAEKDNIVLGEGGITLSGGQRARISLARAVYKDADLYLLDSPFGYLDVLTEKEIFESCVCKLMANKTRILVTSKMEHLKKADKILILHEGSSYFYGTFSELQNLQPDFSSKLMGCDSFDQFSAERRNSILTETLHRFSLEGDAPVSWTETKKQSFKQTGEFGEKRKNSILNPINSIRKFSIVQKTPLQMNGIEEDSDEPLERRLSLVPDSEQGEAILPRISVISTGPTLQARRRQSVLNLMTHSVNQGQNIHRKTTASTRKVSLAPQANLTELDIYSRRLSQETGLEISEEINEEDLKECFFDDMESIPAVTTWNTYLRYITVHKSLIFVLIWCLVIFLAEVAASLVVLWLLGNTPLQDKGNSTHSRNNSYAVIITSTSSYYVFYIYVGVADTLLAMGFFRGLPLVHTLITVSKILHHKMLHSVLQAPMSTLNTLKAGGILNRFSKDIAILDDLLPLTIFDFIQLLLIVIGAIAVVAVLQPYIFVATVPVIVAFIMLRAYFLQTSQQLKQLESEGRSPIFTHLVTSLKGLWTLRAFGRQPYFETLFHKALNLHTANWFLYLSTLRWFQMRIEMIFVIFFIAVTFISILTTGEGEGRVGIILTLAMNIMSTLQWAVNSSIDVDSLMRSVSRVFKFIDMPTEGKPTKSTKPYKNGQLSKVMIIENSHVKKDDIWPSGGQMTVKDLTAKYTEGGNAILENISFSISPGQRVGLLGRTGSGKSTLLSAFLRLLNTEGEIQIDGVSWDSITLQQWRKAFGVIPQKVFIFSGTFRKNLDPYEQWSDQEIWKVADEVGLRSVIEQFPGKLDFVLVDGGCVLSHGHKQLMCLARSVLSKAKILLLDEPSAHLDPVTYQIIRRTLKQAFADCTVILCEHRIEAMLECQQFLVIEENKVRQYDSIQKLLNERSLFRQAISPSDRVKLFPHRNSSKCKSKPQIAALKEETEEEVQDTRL

solubility [1] [µM]	aggregation in PBS buffer by NMR [1]	solubility at 50 µM [1] [µM]	solubility at 100 µM [1] [µM]	F508del-CFTR corrector activity compared with inh-2 (CFTR activity, primary screen) [2]	SMILES	cell apoptosis (CFBE41o– cells)	number of autophagic vacuoles (MDC signal spots) [3]	CFTR corrector activity (in words) [4]
< 5	no	<5	<5	increased activity	Cc1ns/c(=N\C(=N\c2ccccc2)c2ccccc2)n1Cc1cccc(O)c1 [Compound 17, (E)-N-((Z)-4-(3-Hydroxybenzyl)-3-methyl-1,2,4-thiadiazol-5(4H)-ylidene)-N′-phenylbenzimidamide]	markedly increased cell apoptosis		
< 5	no	<5	<5		Cc1ns/c(=N\C(=N\c2ccccc2)c2ccccc2)n1-c1ccccc1 [analog-1, reference compound]		significantly decreased	no activity as a CFTR corrector; also recorded: lack of CFTR corrector activity
